Assay results taken from patent US12016834B2, “Small molecule inhibitors of SLC25A1” (GEORGETOWN UNIVERSITY, priority 2017, dated 2024).

How the values were obtained:
MP2 cells [1] = assay: Seahorse OCR and ATP in patient-derived cells; format: cell-based, human; conditions: monolayer, chronic treatment for several passages (FIG. 6B)
Method: (§1) Primary lung cancer cultures and GMSC. Surgical samples were minced and digested with dispase (50 U/ml) in DMEM media containing 5% serum for 1 hour. Pleural effusions were centrifuged, washed once in PBS, and then plated. All primary cultures were initially grown on 6-well plates pre-coated with 2% Geltrex (Life Technologies; Carlsbad, CA) and 1% Maxgel (Sigma Aldrich). Maxgel is a humanized matrix, native and non-denatured. The inclusion of Maxgel in the system enhanced the initial attachment of primary tumor cells, partially because Maxgel provides a more natural ECM conformational substrate. The day after plating, the media containing unattached cells was typically transferred to a fresh plate, in most of cases generating new attached cultures. The media (Stem Cell Media) is the DMEM/F12 (Thermo-Fisher #11320-033 basic media) supplemented with the following components: Insulin-Transferrin-Sodium selenite (ITS; 1:1000; Sigma #11884); glutamine (Thermo-Fisher) to 4 mM final concentration; sodium pyruvate (Thermo-Fisher) to 2 mM final concentration; rock inhibitor (Y-27632) 10 micrograms/mL; 2-5% Knock Out Serum Replacement (KNOSR, Thermo-Fisher #10828-028); 0.5% ALBUMAX-(Lipid enriched BSA; Thermo-Fisher #11020-021); N2 Supplement (Thermo-Fisher) 1:250; EGF (5 ng/ml; Peprotech); hFGF (20 ng/ml; Bechman); and IGF-1 (Peprotech; 10-20 ng/ml).
(§2) Seahorse extracellular flux analyzer experiments. Cells derived from spheres or monolayer cultures were dissociated and plated overnight at 12,000 cells/well in DMEM with 10% FBS, 5 mM glucose, 1 mM pyruvate, 2 mM glutamine.
(§3) For the mitochondrial stress test, the media was replaced with DMEM without FBS or bicarbonate, containing 5 mM glucose, 1 mM pyruvate, 2 mM glutamine and placed in a CO2 free incubator at 37° C. for 1 hour, and then transferred to the Xf96 extracellular flux analyzer (Agilent; Santa Clara, CA). The program consisted of 3 measurements of OCR/ECAR before the injection of each drug: oligomycin (0.5 μM final concentration), FCCP (2 μM) and rotenone/antimycin (0.5 μM of each). For the glycolysis stress test, cells were plated overnight as above, and the media was washed twice the following day with DMEM without FBS, bicarbonate, glucose, glutamine or pyruvate, and incubated in this media in a CO2 free incubator with/without drug treatments at 37° C. for 4 hours. There were 3 measurements of OCR/ECAR before each injection: glucose (10 mM final concentration), oligomycin (0.5 […] (50 mM). For the analysis of glutamine oxidation, the protocol was the same as the glucose stress test, but with glutamine being the only compound injected (final concentration 4 mM) and OCR/ECAR measured for 60 minutes. When spheres were analyzed, they were dissociated with StemPro® Accutase® (Thermo Scientific; Waltham, MA) and plated under the same conditions as above as for the monolayers the day before the assay (H1299 spheres), or in stem cell media (See Stem Cell Media) with the wells coated in 15 μL of 2% geltrex diluted in DMEM:F12 (Thermo Scientific). The results were normalized to cell number.

MP3 cells = assay: Viability (Crystal Violet) and drug interaction (R index); format: cell-based, human; conditions: single drug, 5 days, monolayer
Method: (§4) Cellular proliferation and cytotoxicity assays. […] The cells were then washed with 1×PBS and fixed with cold 100% methanol at−20° C. for 20 minutes. Methanol was washed off and the cells were stained with 0.5% crystal violet dissolved in 25% methanol and water at 4° C. for 20 minutes. The staining was washed off using deionized (DI) water and the plate was dried overnight. On the second day, 100 mM sodium citrate in 50% ethanol and 50% water was added to the wells and absorbance at 550 nm was measured and corrected with readings at 405 nm. In other experiments, cell viability was assessed by trypan blue exclusion and visual count of the live cells was performed.
(§5) Statistical methods for drug interactions. […] Sexp/Sobs=1.0 denotes an additive interaction, while >1.0 denotes a synergistic interaction. R index values approaching 2.0 are indicative of strong synergy.

MP2 cells [2] = assay: as above; format: cell-based, human; conditions: single drug, 5 days, monolayer
Method: as §4, §5

MP1 cells [3] = assay: as above; format: cell-based, human; conditions: single drug, 5 days, monolayer
Method: as §4, §5

H1299 cells [4] = assay: Sphere forming / self-renewal assay; format: cell-based, human; conditions: for self-renewal: single-cell derived spheres, Rotenone 10 nM, Oligomycin 1 mM, metformin 3 mM (FIG. 3I)
Method: Growth of monolayers and sphere cultures. Tumor cell lines were grown as monolayers in complete Dulbecco's Modified Eagle's Media (DMEM, Gibco; supplemented with 10% fetal bovine serum and 1% of 5,000 units/mL of penicillin-streptomycin (pen-strep), Gibco). To generate spheroids, cells were grown in Falcon bacteriological petri dishes coated with 2% poly(2-hydroxyethyl methacrylate) dissolved in 100% ethanol. The growth media was DMEM/F12 (Gibco) supplemented with 20 ng/mL of epidermal growth factor (EGF), 5 ng/mL of fibroblast growth factor, 0.375% 100× N2 supplements (Gibco), and 1% pen-strep. Monolayer cells were dissociated using 0.25% trypsin-edta (Gibco), whereas spheroid cultures were dissociated using StemPro Accutase (Gibco). Patient derived cell lines were grown as described below in the primary lung cultures section.
Self-renewal assays. Tumor cells cultured as spheroids were dissociated and diluted in 2× sphere media containing 1% methyl cellulose, which was previously dissolved in cold DMEM/F12 media. Either 200, 500, or 1000 cells were then plated in each 96 well and were incubated in the presence or absence of drugs, as indicated. The spheres were allowed to form for a period of a week to ten days, at which point they were counted. Six biological replicates were used for quantification of the results.

H1299 cells [5] = assay: Proliferation / viability in monolayer (2D) cultures; format: cell-based, human; conditions: for anti-proliferative activity in 2D cultures: Rotenone 10 nM, Oligomycin 1 mM, metformin 3 mM (FIG. 3I)
Method: Cellular proliferation and cytotoxicity assays. The proliferative capacity of cells was assessed by plating cells in triplicate at a concentration of 2,000 to 10,000 cells/well in 96 well plates in triplicate, with or without drug treatment for 48 hours. The cells were then washed with 1×PBS and fixed with cold 100% methanol at−20° C. for 20 minutes. Methanol was washed off and the cells were stained with 0.5% crystal violet dissolved in 25% methanol and water at 4° C. for 20 minutes. The staining was washed off using deionized (DI) water and the plate was dried overnight. On the second day, 100 mM sodium citrate in 50% ethanol and 50% water was added to the wells and absorbance at 550 nm was measured and corrected with readings at 405 nm. In other experiments, cell viability was assessed by trypan blue exclusion and visual count of the live cells was performed.

SLC25A1 = SLC25A1 (Homo sapiens, UniProt P53007); assay: Surface plasmon resonance (SPR) binding to recombinant purified SLC25A1; conditions: steady state, 1:1 binding model; human protein
Chain of SLC25A1 (P53007 14-311): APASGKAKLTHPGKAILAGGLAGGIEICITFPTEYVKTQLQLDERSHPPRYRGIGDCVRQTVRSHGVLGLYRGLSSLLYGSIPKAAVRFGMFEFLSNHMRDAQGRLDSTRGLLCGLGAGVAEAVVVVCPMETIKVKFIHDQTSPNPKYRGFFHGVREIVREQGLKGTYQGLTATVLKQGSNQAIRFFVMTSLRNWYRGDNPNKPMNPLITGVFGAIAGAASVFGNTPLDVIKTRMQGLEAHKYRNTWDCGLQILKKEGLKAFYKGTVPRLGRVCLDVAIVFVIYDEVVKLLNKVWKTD
Method: Surface Plasmon Resonance (SPR). SPR experiments were performed on a Biacore 4000 instrument at room temperature. The NTA sensorchip surface was activated by injecting 0.5 mM NiCl2 for 1 minute. Histidine-tagged recombinant purified SLC25A1 protein (0.07 mg/ml stock concentration) was used as the ligand to capture on the sensor surface. SLC25A1 was dissolved (1:50 dilution) in PBS-P (20 mM phosphate buffer (pH 7.4), 2.7 mM KCl, 137 mM NaCl and 0.05% surfactant P20) buffer and captured onto spots 2 and 4. SLC25A1 was captured to a level of ˜3000. PBS-P was used as the capture running buffer. Small molecules were used as analytes to flow over the ligand immobilized surface. Spot 3 of all flow cells were used as reference. The calculated theoretical Rmax was ˜30 RU based on a 1:1 interaction. The kinetics experiments were performed in the presence of HBS-P (10 mM HEPES (pH7.4), 150 mM NaCl, and 0.05% surfactant P20). The flow rate of all the solutions was maintained at 30 μL/min. The analyte concentrations were 0 μM, […], 6.25 μM, 12.5 μM, 25 μM, 50 μM, and 100 μM. Analyte concentrations showing signs of aggregation were excluded from the analysis. Data were analyzed by Biacore BiaEvaluation software for 1:1 steady state binding model.

MP1 cells [6] = assay: Apoptosis by annexin V and PI flow cytometry; format: cell-based, human; conditions: drug alone
Method: Flow cytometry. Tumor cells were trypsinized and washed in 1×PBS. The cells were then stained with the antibodies of choice: CD166-PE (Biolegend), CD133-647 (Biolegend), or CD44 (Biolegend), in 1% BAS-PBS. The cell cycles of monolayers or spheres of the cells were analyzed by fixing the cells in cold 75% ethanol. The annexin V (Biolegend) and propidium iodide (Biolegend) experiments were carried out.

MP1 cells [7] = assay: Tumor xenograft in immuno-compromised mice; format: in vivo
Method: Mice and treatments. To produce tumor xenografts, 5×10^6 cells derived from either monolayer cultures or GMSC expanded spheres were dissociated with Accutase, resuspended in PBS, and injected subcutaneously in the flanks of female balb athymic mice. Once detectable tumors started to form, their sizes were measured with a caliper in three dimensions and mice were randomized in the different treatment groups. […] Cisplatin was administered at 26 mg/kg every three or four days. AZD9291 was administered at 25/mg/Kg every 3 days. Serial measurements were made every day after the identification of the initial tumor mass to determine growth curves in vivo. Tumor volume was calculated using the formula for a prolate spheroid: volume=[…], where a is the width and b is the length. All animals were sacrificed when the tumors exceeded 1.5 cm. At the completion of experiments, tumors were excised, weighed, and the statistical significances of differences in tumor volume were assessed. Animals were monitored once a week for the presence of signs of disease, particularly neurological disturbances or weight loss, and they were weighed periodically.
Statistics. For the animal studies, power calculations for each treatment group were first determined. The number of animals was calculated to detect a 50% difference at alpha=0.05 and power=0.8. Statistical significance was assessed using both unpaired, two-tailed Student t test, and analysis of variance (ANOVA). Significant differences are indicated using the standard […] scale (P<0.05, significant; P<0.01, highly significant; P<0.001, extremely significant).

MP1 cells [8] = assay: Seahorse OCR and ATP in patient-derived cells; format: cell-based, human; conditions: monolayer, chronic treatment for several passages (FIG. 6A)
Method: as §1, §2, §3

H1299 cells [9] = assay: Glycolysis: ECAR (Seahorse) and lactic acid levels; format: cell-based, human; conditions: sphere-grown CSCs (FIG. 11C)
Method: Cells, reagents, antibodies, primers. The H1299 cell lines and other cell lines employed in this study were obtained from ATCC or from the tissue culture core facility at LCCC. Cells were grown in Dulbecco's Modified Eagle's Medium (DMEM, 25 mM glucose, with glutamine and pyruvate from Invitrogen; Carlsbad, CA) and supplemented with 10% fetal calf serum (FCS). […] The SLC25A1 specific shRNA vectors were purchased from Sigma. The vector expressing human SLC25A1 untagged or Flag-Myc epitope tagged were from Origene; Rockville, MD (#SC120727 and RC200657, respectively). The anti-SLC25A1 antibody used in immuno-blot was from Santa Cruz Biotech, #sc-86392 employed at 1:1000 dilution. Citrate, lactate, and PFK measurements were performed by using commercially available kits (Biovision (Milpitas, CA)).
as §2, §3

Compound: C=CC(=O)Nc1cc(Nc2nccc(-c3cn(C)c4ccccc34)n2)c(OC)cc1N(C)CCN(C)C [AZD9291, osimertinib, reference compound]
- mitochondrial respiration after chronic drug treatment (MP2 cells [1]): dramatic shift towards mitochondrial respiration
- response to drug (viability) (MP3 cells): complete insensitivity
- response to drug (viability) (MP2 cells [2]): minimal response
- response to drug (viability) (MP1 cells [3]): minimal response

Compound: O=C(O)CCCCC(CCSCc1ccccc1)SCc1ccccc1 (centres unmarked) [CPI-613]
- activity in spheres versus 2D/monolayer cultures (H1299 cells [4]; sphere forming assay compared with monolayer): more effective in sphere forming assays than in monolayer cultures
- anti-proliferative activity, ranges of concentrations (H1299 cells [5]; monolayer or methylcellulose single cells (FIG. 3J)): anti-proliferative activity at comparable ranges of concentrations

Compound: O=C(O)c1ccc(Cl)c(S(=O)(=O)Nc2cccc([N+](=O)[O-])c2)c1 [CTPI-1]
- Kd (SLC25A1): 63.6 µM
- growth inhibitory activity, range of concentrations (H1299 cells [4]; human cells (FIGS. 2A and 2E)): millimolar range of concentrations
- sphere forming capacity (H1299 cells [4]; one week after treatment, BTA 2 mM, CTPI 1 mM (FIG. 9F)): reduced sphere forming capacity

Compound: N.N.[Cl][Pt][Cl] [cisplatin, reference compound]
- apoptosis (MP1 cells [6]): did not induce apoptosis
- stem cell markers in tumors (immuno-blot) (MP1 cells [7]; GMSC-derived tumors (FIG. 7F)): enhanced
- tumor growth, cisplatin alone (MP1 cells [7]; cisplatin 3 mg/Kg every three days (FIG. 7D)): inhibition of tumor growth but this effect was lost over time
- time until most tumors restarted to grow (MP1 cells [7]; cisplatin alone): two
- mitochondrial respiration after chronic drug treatment (MP1 cells [8]): dramatic shift towards mitochondrial respiration
- response to drug (viability) (MP2 cells [2]): minimal response
- response to drug (viability) (MP1 cells [3]): minimal response

Compound: CN(C)C(=N)N=C(N)N [metformin]
- glycolytic rates (H1299 cells [9]): enhanced glycolytic rates
- self-renewal (H1299 cells [4]): significantly reduced self-renewal
- anti-proliferative activity in 2D cultures (H1299 cells [5]): no anti-proliferative activity

Compound: CC[C@H]1/C=C/C=C/C[C@@H](C)[C@H](O)[C@@](C)(O)C(=O)[C@@H](C)[C@H](O)[C@@H](C)C(=O)[C@@H](C)[C@H](O)[C@@H](C)/C=C/C(=O)O[C@@H]2[C@H](C)[C@H](CC1)O[C@]1(CC[C@H](C)[C@H](C[C@@H](C)O)O1)[C@H]2C [oligomycyn, oligomycin]
- self-renewal (H1299 cells [4]): significantly reduced self-renewal
- anti-proliferative activity in 2D cultures (H1299 cells [5]): no anti-proliferative activity

Compound: C=C(C)[C@H]1Cc2c(ccc3c2O[C@@H]2COc4cc(OC)c(OC)cc4[C@@H]2C3=O)O1 [rotenone]
- self-renewal (H1299 cells [4]): significantly reduced self-renewal
- anti-proliferative activity in 2D cultures (H1299 cells [5]): no anti-proliferative activity
